# Source: ChEMBL document CHEMBL1151439, “Bactericidal action of daptomycin against stationary-phase and nondividing Staphylococcus aureus cells” (2007)
# Active and inactive are the calls of the source. No cut-off for these calls is given here.
# Assays:
# Staphylococcus aureus [1] = test: Bactericidal activity against high inoculum density exponential growth culture of methicillin-sensitive Staphylococcus aureus ATCC 29213 grown for 2 hrs in MHBc at 10 ug/mL after 24 hrs by time kill study; format: functional, organism-based
# Staphylococcus aureus [2] = test: Bactericidal activity against CCCP-induced metabolically arrested exponential growth culture of methicillin-sensitive Staphylococcus aureus ATCC 29213 grown for 2 hrs in MHBc at 10 ug/mL after 24 hrs by time kill study; format: functional, organism-based
# Staphylococcus aureus [3] = test: Antibacterial activity against exponential growth culture of methicillin-sensitive Staphylococcus aureus ATCC 29213 grown for 2 hrs in MHBc by broth microdilution method; format: functional
# Staphylococcus aureus [4] = test: Bactericidal activity against 1 hr cold-arrested exponential growth culture of methicillin-sensitive Staphylococcus aureus ATCC 29213 grown for 2 hrs in MHBc at 2 ug/mL incubated at 0 degC by time kill study; format: functional, organism-based
# Staphylococcus aureus [5] = test: Bactericidal activity against 24 hrs cold-arrested exponential growth culture of methicillin-sensitive Staphylococcus aureus ATCC 29213 grown for 2 hrs in MHBc at 2 ug/mL incubated at 37 degC after 2 hrs by time kill study; format: functional, organism-based
# Staphylococcus aureus [6] = test: Bactericidal activity against erythromycin-induced metabolically arrested exponential growth culture of methicillin-sensitive Staphylococcus aureus ATCC 29213 grown for 2 hrs in MHBc at 10 ug/mL after 24 hrs by time kill study; format: functional, organism-based
# Staphylococcus aureus [7] = test: Bactericidal activity against high inoculum density stationary phase culture of methicillin-sensitive Staphylococcus aureus ATCC 29213 grown for >17 hrs in MHBc at 100 ug/mL after 24 hrs by time kill study; format: functional, organism-based
# Staphylococcus aureus [8] = test: Bactericidal activity against stationary phase culture of methicillin-sensitive Staphylococcus aureus ATCC 29213 grown for >17 hrs in MHBc followed by dilution in nutrient depleted MHBc assessed as logarithmic reduction in CFU per millimiter at 10 ug/mL after 24 hrs by time kill study; format: functional
# Staphylococcus aureus [9] = test: Bactericidal activity against stationary phase culture of methicillin-sensitive Staphylococcus aureus ATCC 29213 grown for 17 hrs in MHBc at 32 ug/ml after 24 hrs by time kill study; format: functional, organism-based
# Staphylococcus aureus [10] = test: Bactericidal activity against high inoculum density exponential growth culture of methicillin-sensitive Staphylococcus aureus ATCC 29213 grown for 2 hrs in MHBc assessed as log reduction in cell density at 100 ug/mL after 1 hr by time kill study; format: functional, organism-based
# Staphylococcus aureus [11] = test: Bactericidal activity against high inoculum density stationary phase culture of methicillin-sensitive Staphylococcus aureus ATCC 29213 grown for >17 hrs in MHBc at 100 ug/mL after prolonged treatment period by time kill study; format: functional, organism-based
# Staphylococcus aureus [12] = test: Bactericidal activity against exponential growth culture of methicillin-sensitive Staphylococcus aureus ATCC 29213 grown for 2 hrs in MHBc assessed as logarithmic reduction in CFU at 2 ug/ml within 60 mins by time kill study; format: functional
# Staphylococcus aureus [13] = test: Bactericidal activity against high inoculum density stationary phase culture of methicillin-sensitive Staphylococcus aureus ATCC 29213 grown for >17 hrs in MHBc assessed as log reduction in CFU per millimiter at 100 ug/mL after 8 hrs by time kill study; format: functional
# Staphylococcus aureus [14] = test: Bactericidal activity against high inoculum density stationary phase culture of methicillin-sensitive Staphylococcus aureus ATCC 29213 grown for >17 hrs in MHBc at 10 ug/mL after 24 hrs by time kill study; format: functional, organism-based
# Staphylococcus aureus [15] = test: Bactericidal activity against high inoculum density stationary phase culture of methicillin-sensitive Staphylococcus aureus ATCC 29213 grown for >17 hrs in MHBc by time kill study; format: functional, organism-based
# Staphylococcus aureus [16] = test: Bactericidal activity against stationary phase culture of methicillin-sensitive Staphylococcus aureus ATCC 29213 grown for >17 hrs in MHBc followed by dilution in nutrient depleted MHBc assessed as logarithmic reduction in CFU per millimiter at 100 ug/mL after 24 hrs by time kill study; format: functional, organism-based
# Staphylococcus aureus [17] = test: Bactericidal activity against high inoculum density stationary phase culture of methicillin-sensitive Staphylococcus aureus ATCC 29213 grown for >17 hrs in MHBc assessed as effect on viability at 100 ug/mL after 4 hrs by time kill study; format: functional, organism-based
Compound,Activity (Staphylococcus aureus [1]),Activity (Staphylococcus aureus [2]),"MIC (Staphylococcus aureus [3]; ATCC 29213, 2 h)",Activity (Staphylococcus aureus [4]),Activity (Staphylococcus aureus [5]),Activity (Staphylococcus aureus [6]),Activity (Staphylococcus aureus [7]),also measured
O=C(O)c1cn(C2CC2)c2cc(N3CCNCC3)c(F)cc2c1=O [CIPROFLOXACIN],Active,inactive,0.5 µg/mL,inactive,Active,inactive,–,–
GENTAMICIN,–,–,–,–,–,–,Active,MIC (Staphylococcus aureus [3]): 0.25 µg/mL
CCOc1ccc2ccccc2c1C(=O)N[C@@H]1C(=O)N2[C@@H]1SC(C)(C)[C@@H]2C(=O)O [NAFCILLIN],–,–,0.125 µg/mL,inactive,Active,–,–,–
CCCCCCCCCC(=O)N[C@@H](Cc1c[nH]c2ccccc12)C(=O)N[C@H](CC(N)=O)C(=O)N[C@@H](CC(=O)O)C(=O)N[C@@H]1C(=O)NCC(=O)N[C@@H](CCCN)C(=O)N[C@@H](CC(=O)O)C(=O)N[C@H](C)C(=O)N[C@@H](CC(=O)O)C(=O)NCC(=O)N[C@H](CO)C(=O)N[C@@H]([C@H](C)CC(=O)O)C(=O)N[C@@H](CC(=O)c2ccccc2N)C(=O)O[C@@H]1C,Active,Active,0.5 µg/mL,Active,Active,Active,–,Activity (Staphylococcus aureus [8]): >1; Activity (Staphylococcus aureus [9]): Active; Activity (Staphylococcus aureus [10]): Active; Activity (Staphylococcus aureus [11]): Active; Activity (Staphylococcus aureus [12]): 3; Activity (Staphylococcus aureus [13]): 3; Activity (Staphylococcus aureus [14]): inactive; Activity (Staphylococcus aureus [15]): Dose-dependent effect; Activity (Staphylococcus aureus [16]): Active
CN[C@H](CC(C)C)C(=O)N[C@H]1C(=O)N[C@@H](CC(N)=O)C(=O)N[C@H]2C(=O)N[C@H]3C(=O)N[C@H](C(=O)N[C@H](C(=O)O)c4cc(O)cc(O)c4-c4cc3ccc4O)[C@H](O)c3ccc(c(Cl)c3)Oc3cc2cc(c3O[C@@H]2O[C@H](CO)[C@@H](O)[C@H](O)[C@H]2O[C@H]2C[C@](C)(N)[C@H](O)[C@H](C)O2)Oc2ccc(cc2Cl)[C@H]1O,–,–,–,–,–,–,inactive,Activity (Staphylococcus aureus [17]): inactive
